Results reported in patent publication US6214805A, “RNase L activators and antisense oligonucleotides effective to treat RSV infections” (priority 1997, dated 2001).

Legend:
[1] = tested on: RSV strain A2; experiment: Antiviral activity in Hep-2 cells, neutral red (reduction of RSV-induced CPE); format: cell-based, Respiratory syncytial virus
Source text: (§1) A comparison of the efficacies of spA4 -antiRSV3'3'T/(8281-8299) treatment and conventional ribarvirin treatment can be obtained by determining the RSV-inhibitory concentration and the cytotoxic concentration of each compound. Cultures of the human laryngeal carcinoma cell line HEp-2 and the […] renal cell line MA-104 were established and infected with an MOI=0.005. Cultures were fed twice daily. Treatment with either ribavirin or spA4 -antiRSV3'3'T/(8281-8299) was begun simultaneously with infection and continued for four days. Treatment was then withdrawn and the test read on day 5. The effects of treatment on RSV infection were reported as 1) an EC50, the concentration at which there was a 50% reduction in the observable cytopathic effects of infection and 2) an EC90, the concentration at which there was a 90% reduction in viral production. […] Therapeutic efficacy is estimated by the Selectivity Index, which is the ratio of IC50 /EC50.
determined with RSV strain A2, MOI = 0.005
(§2) Fresh medium and oligo or ribavirin added twice daily for 4 d and test read
EC50 effective concentration to reduce RSV-induced CPE by 50%.

[2] = tested on: RSV strain A2; experiment: Virus yield reduction in MA-104 cells; format: cell-based, Respiratory syncytial virus; settings: human respiratory syncytial virus, MA104, 96 h, RSV yield reduced by 90%, MOI = 0.005, added twice daily for 4 d
Source text: as §1
as determined with RSV strain A2, MOI = 0.005
as §2
EC90 effective concentration to reduce RSV yield by 90%.

[3] = tested on: MA-104 Cells; experiment: Cytotoxicity to MA-104 cells (visual and dye uptake, rapidly dividing cells); format: cell-based, murine; settings: MA104
Source text: as §1
IC50 50% inhibitory concentration for cytotoxicity to cells (visual

[4] = tested on: RSV strain A2; experiment: Virus yield reduction assay in HEp-2 cells; format: cell-based, Respiratory syncytial virus; settings: human respiratory syncytial virus, compound added twice daily
Protocol: EC50 & EC90 : concentration required to reduce virus (RSV strain
Both compounds were added to the cells twice daily.

[5] = tested on: RSV strain A2; experiment: CPE inhibition assay in HEp-2 cells; format: cell-based, Respiratory syncytial virus; settings: for EC50: human respiratory syncytial virus
Protocol: The CPE inhibition assay used in this study was performed as described by Sidwell and Huffman (Sidwell et al., 1971, Appl. Microbiol. 22:7979-7801) with slight modifications. Varying concentrations of test compounds were added to each plate containing near confluent cell monolayers (1×10^5 cells/well) followed immediately by the addition of virus at a multiplicity of infection (MOI)=0.01, and then incubated at 37° C. […] All compounds were assayed for virus inhibition in quadruplicate and for cytotoxicity in duplicate. For each compound, two wells were set aside as uninfected, untreated cell controls per test and four wells per test received virus only and represented controls for virus replication. […] For all CPE-based assays, the 50% effective concentration (EC50) was calculated by regression analysis using the means of the CPE ratings at each concentration of compound.

[6] = tested on: RSV 393 (clinical isolate); experiment: CPE inhibition assay in HEp-2 cells, RSV 393; format: cell-based, Respiratory syncytial virus; settings: Table 12, CPE
Protocol: The CPE inhibition assay used in this study was performed as described by Sidwell and Huffman (Sidwell et al., 1971, Appl. Microbiol. 22:7979-7801) with slight modifications. Varying concentrations of test compounds were added to each plate containing near confluent cell monolayers (1×10^5 cells/well) followed immediately by the addition of virus at a multiplicity of infection (MOI)=0.01, and then incubated at 37° C. On the following day, the medium from each plate was removed and fresh compound added. The assay was stopped at the end of the sixth day when the virus cytopathic effect in the virus infected, untreated control cells affected all cells. All compounds were assayed for virus inhibition in quadruplicate and for cytotoxicity in duplicate. For each compound, two wells were set aside as uninfected, untreated cell controls per test and four wells per test received virus only and represented controls for virus replication. […] For all CPE-based assays, the 50% effective concentration (EC50) was calculated by regression analysis using the means of the CPE ratings at each concentration of compound.
(§3) In this series, MP351 was added once a day for two days with fresh medium

[7] = tested on: RSV 393 (clinical isolate); experiment: Neutral red uptake assay in HEp-2 cells, RSV 393; format: cell-based, Respiratory syncytial virus; settings: Table 12, neutral red
Protocol: This assay was performed by a modified method as described by Cavenaugh et al. (Cavenaugh et al. 1990, Invest. New Drugs 8:347-354). Briefly, medium was removed from each well of a plate scored for CPE from a CPE inhibition assay, 0.2 ml of neutral red (0.034% in PSS) was added to each of the wells of that plate and the plate incubated for 2 hr at 37° C. in the dark. The neutral red solution was removed from the wells and the wells rinsed twice with PBS (pH 7.4). Equal volumes (0.1 ml) of absolute ethanol and Sorenson citrate buffer (0.1 M sodium citrate, 0.1 M HCI, pH 4.2) were mixed together and added to each well. Plates were incubated in the dark for 30 min. at room temperature to solubilize the dye. The plates were then gently mixed on a 96-well plate adapted vortexer for 1 min. Absorbances at 540 nm and 450 nm were read with a microplate reader (Bio-Tek EL 1309; Bio-Tek Instruments, Inc. Winooski, Vt.). Absorbance values were expressed as percents of untreated controls and EC50 and IC50 values were calculated by regression analysis.
as §3

[8] = in vivo; cited from earlier work
[9] = human respiratory syncytial virus, 48 h, once a day for two days

NC(=O)c1ncn([C@@H]2O[C@H](CO)[C@@H](O)[C@H]2O)n1 [Ribavirin]
SI selectivity index = IC50/EC50 [1]: 10
EC50 ([1]; human respiratory syncytial virus, 96 h, neutral red, MOI = 0.005, added twice daily for 4 d, read on d 5): 4 µM
EC90 [2]: 7 µM
IC50 [3]: 210 µM
EC50 ([4]; virus yield reduced by 50%): 40 µM
EC90 ([4]; virus yield reduced by 90%): 80 µM
SI ([5]; Table 10, CPE, B.I.D. 2 days, HEp2): > 57
SI ([5]; Table 10, CPE, B.I.D. 3 days, HEp2): > 180
SI ([5]; Table 10, CPE, B.I.D. 4 days, HEp2): 57
SI ([5]; Table 10, CPE, q.d. 1 day (added along with virus, never replenished), HEp2): 57
SI ([5]; Table 10, CPE, q.d. 3 days, HEp2): > 57
SI ([5]; Table 10, CPE, q.d. 4 days, HEp2): > 57
SI ([5]; Table 13, CPE, q.d., Day 0, HEp-2): 30
SI ([5]; Table 13, CPE, q.d., Day 1, HEp-2): 8
SI ([5]; Table 13, CPE, q.d., Day 2, HEp-2): 80
EC50 ([5]; HEp-2, 0 h, Table 13, CPE, q.d., Day 0 (added immediately after virus exposure), HEp-2): 12 µM
EC50 ([5]; HEp-2, 24 h, Table 10, CPE, q.d. 1 day (added along with virus, never replenished), HEp2): 4 µM
EC50 ([5]; HEp-2, 24 h, Table 13, CPE, q.d., fresh compound up to Day 1 post infection, HEp-2): 4 µM
EC50 ([5]; HEp-2, 48 h, Table 10, CPE, B.I.D. 2 days, HEp2, read-out: EC50): < 4 µM
EC50 ([5]; HEp-2, 48 h, Table 13, CPE, q.d., fresh compound up to Day 2 post infection, HEp-2, read-out: EC50): 4 µM
EC50 ([5]; HEp-2, 72 h, Table 10, CPE, B.I.D. 3 days, HEp2, read-out: EC50): < 4 µM
EC50 ([5]; HEp-2, 72 h, Table 10, CPE, q.d. 3 days, HEp2, read-out: EC50): < 4 µM
EC50 ([5]; HEp-2, 96 h, Table 10, CPE, B.I.D. 4 days, HEp2, read-out: EC50): 4 µM
EC50 ([5]; HEp-2, 96 h, Table 10, CPE, q.d. 4 days, HEp2, read-out: EC50): < 4 µM
SI [6]: 24
EC50 [6, 9]: 4 µM
SI [7]: 24
EC50 [7, 9]: 4 µM
half-life [8]: 40 days
